Drawing on publication PMC5865291, “A fast and sensitive activity assay for lytic polysaccharide monooxygenase” (Biotechnology for Biofuels, 2018), this text covers specific activity for one compound.

The target of this experiment is T1, NcLPMO9F (Neurospora crassa, UniProt Q1K4Q1).
T1 construct: gene gh61-6; recombinant secreted from Pichia pastoris X-33, column purified; 23,200 g/mol
T1 sequence (Q1K4Q1 18-231): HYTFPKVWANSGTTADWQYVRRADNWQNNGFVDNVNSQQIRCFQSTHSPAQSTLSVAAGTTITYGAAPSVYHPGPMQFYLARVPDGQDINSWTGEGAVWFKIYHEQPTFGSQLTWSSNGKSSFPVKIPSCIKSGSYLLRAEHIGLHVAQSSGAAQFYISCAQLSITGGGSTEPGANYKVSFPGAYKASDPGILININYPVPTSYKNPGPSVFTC
Put plainly: spectrophotometric peroxidase assay at […] nm (coerulignone formation). The conditions noted are these: H2O2 cosubstrate, standard conditions (30 °C); turnover only. In kind it is biochemical.

Turning to `COc1cccc(OC)c1O` [2,6-dimethoxyphenol], the specific activity entry is on record as “The peroxidase activity was found for three different LPMOs from two different organisms”.
